Reference: PMC12566723, “Boronic Derivatives of Thiosemicarbazones as Tyrosinase Inhibitors” (Pharmaceutics, 2025)
Counter-ions that a name gives are not always drawn.

Experiments:
SK-MEL-3 = assay: Antiproliferative activity by sulforhodamine B assay, SK-MEL-3; type: cell-based; conditions: SRB; for IC50: SK-MEL-3, 72 h; for inhibition at 100 µM: SK-MEL3, read-out: proliferation inhibition at 100µM (reported if IC50 > 100 µM), SK-MEL-3, 100 µM, 72 h
Method: (§1) Cell lines. The Hs-294T (HTB-140), MCF-10A, and SK-MEL-3 (HTB-69) cell lines were purchased from the American Type Culture Collection (ATCC; Rockville, MD, USA). The KU-19-19 was purchased from Leibniz Institute DSMZ-German Collection of Microorganisms and Cell Cultures GmbH (Braunschweig, Germany). Hs-294T, SK-MEL-3, and KU-19-19 (ACC 395) cell lines were cultured in Dulbecco’s Modified Eagle Medium (DMEM; Biowest, Nuaille, France) supplemented with 10% (v/v) fetal bovine serum (FBS; GE Healthcare HyClone, Logan, UT, USA), 2 mM L-glutamine (Sigma-Aldrich, Poznań, Poland). The MCF-10A cell line was cultured in Ham’s F12 medium with glutamine (Corning Costar, Warsaw, Poland) supplemented with 5% (v/v) FBS, 5% (v/v) horse serum, 10 µg/mL insulin, 0.05 µg/mL cholera toxin, 0.5 µg/mL hydrocortisone, and 20 ng/mL hEGF (all from Sigma-Aldrich). All culture media contained 100 µg/mL streptomycin (Sigma-Aldrich) and 100 U/mL penicillin (PolfaTarchomin SA, Warsaw, Poland). The cell lines were tested for mycoplasma contamination using Venor GeM Classic (Minerva Biolabs, Berlin, Germany) with negative results in all cases. Cell lines were cultured in a humidified atmosphere at 37 °C with 5% (v/v) CO2 and passaged twice a week using ethylenediaminetetraacetic acid (EDTA)-Trypsin solution (pH 8; HIIET, Wroclaw, Poland) as a detachment agent.
(§2) Antiproliferative activity assessment by sulforhodamine B assay. The cells were seeded on 384-well plates (Greiner Bio One, Kremsmünster, Austria) at a density of 1 × 10^3 cells/well and, after overnight attachment, were exposed to compounds at various concentrations (at least eight concentrations). After 72 h, the sulforhodamine B (SRB) assay based on Skehan et al. was performed with minor modifications. Briefly, cell were fixed with 20% (w/v) trichloroacetic acid (Avantor Performance Materials, Gliwice, Poland) for 1 h, washed several times with tap water, and stained with 20 µL of 0.1% (w/v) solution of sulforhodamine B (Sigma-Aldrich, Poznan, Poland) in 1% (v/v) acetic acid (Avantor Performance Materials, Gliwice, Poland). After 30 min of incubation at room temperature, the unbound dye was washed out with 1% (v/v) acetic acid, whereas the bound dye was solubilized with 70 µL of a 10 mM unbuffered tris(hydroxymethyl)aminomethane (TRIS; Avantor Performance Materials, Gliwice, Poland) solution. The entire procedure was performed using Biotek EL-406 washing station (BioTek Instruments, Winooski, VT, USA). Absorbance was read using a Biotek Hybrid H4 reader (BioTek Instruments, Winooski, VT, USA) at 540 nm wavelength. Proliferation inhibition (%Inh) was calculated using the following formula: %Inh = [((A_p − A_m)/(A_k − A_m)) × 100] − 100, where Am—absorbance of cell-free medium (blank), Ak—absorbance for vehicle-treated cells (control), Ap—absorbance for compound-treated cells. […] 10.5.0 (GraphPad Software Inc., San Diego, CA, USA) using the [inhibitor] vs. response—variable slope (four parameters) Hill’s equation, based on at least three biological, independent repeats.

Hs-294T = assay: Antiproliferative activity by sulforhodamine B assay, Hs-294T; type: cell-based; conditions: for IC50: 72 h, SRB; for inhibition at 100 µM: read-out: proliferation inhibition at 100µM (reported if IC50 > 100 µM), 100 µM, 72 h, SRB
Method: as §1, §2

KU-19-19 = assay: Antiproliferative activity by sulforhodamine B assay, KU-19-19; type: cell-based; conditions: SRB; for IC50: KU-19-19, 72 h; for inhibition at 100 µM: read-out: proliferation inhibition at 100µM (reported if IC50 > 100 µM), KU-19-19, 100 µM, 72 h
Method: as §1, §2

MCF-10A = assay: Antiproliferative activity by sulforhodamine B assay, MCF-10A; type: cell-based; conditions: for IC50: 72 h, SRB; for inhibition at 100 µM: read-out: proliferation inhibition at 100µM (reported if IC50 > 100 µM), 100 µM, 72 h, SRB
Method: as §1, §2

[1] = system: SK-MEL-3, Hs294T, KU-19-19, MCF-10A cell lines; assay: Antiproliferative activity by sulforhodamine B assay, statements across the cell line panel; type: cell-based; conditions: for IC50 in SK-MEL-3 relative to the Hs294T cell line: SK-MEL-3 vs Hs294T, fold higher; for antiproliferative effects in words: up to a concentration of 100 µM
Method: as §1, §2
In view of the results obtained from studies on the inhibitory activity of boronate derivatives of thiosemicarbazones against tyrosinase, we decided to test their ability to inhibit the growth and proliferation of tumor lines that overexpress tyrosinase. For this purpose, we tested antiproliferative activity on selected cell lines. Initial antiproliferative screening was conducted using a tissue-agnostic approach on a select panel of cell lines. […]

mushroom tyrosinase = mushroom tyrosinase (Agaricus bisporus, UniProt C7FF04); assay: Tyrosinase enzymatic assay (diphenolase activity, L-DOPA substrate, dopachrome at 475 nm); type: biochemical; conditions: para-substituted analogue vs carboxylic acid of ref 30
Sequence of mushroom tyrosinase (C7FF04 2-392): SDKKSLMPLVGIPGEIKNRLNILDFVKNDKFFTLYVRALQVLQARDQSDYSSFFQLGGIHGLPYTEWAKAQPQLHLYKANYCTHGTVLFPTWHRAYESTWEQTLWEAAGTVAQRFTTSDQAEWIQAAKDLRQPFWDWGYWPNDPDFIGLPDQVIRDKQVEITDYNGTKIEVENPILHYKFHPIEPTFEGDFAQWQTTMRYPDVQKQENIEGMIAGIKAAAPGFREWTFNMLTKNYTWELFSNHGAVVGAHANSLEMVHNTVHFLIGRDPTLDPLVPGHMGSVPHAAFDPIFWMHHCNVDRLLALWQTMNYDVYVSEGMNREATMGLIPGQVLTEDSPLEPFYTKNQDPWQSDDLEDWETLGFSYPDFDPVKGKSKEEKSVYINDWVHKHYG
Sequence of mushroom tyrosinase (G1K3P4 1-150 partner): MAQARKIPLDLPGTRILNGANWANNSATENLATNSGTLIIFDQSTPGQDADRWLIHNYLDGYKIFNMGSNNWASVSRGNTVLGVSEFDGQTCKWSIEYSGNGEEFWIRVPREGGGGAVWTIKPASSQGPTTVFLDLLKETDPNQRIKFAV

| SMILES | inhibition at 100 µM (SK-MEL-3; Homo sapiens) [%] | inhibition at 100 µM (Hs-294T; Homo sapiens) [%] | inhibition at 100 µM (KU-19-19; Homo sapiens) [%] | inhibition at 100 µM (MCF-10A; Homo sapiens) [%] | IC50 (SK-MEL-3; Homo sapiens, SK-MEL3) [µM] | further results |
| --- | --- | --- | --- | --- | --- | --- |
| [NH2][Pt]([NH2])([Cl])[Cl] [CDDP, Cisplatin, reference compound] | – | – | – | – | – | IC50 (SK-MEL-3): 15 µM; IC50 (Hs-294T): 2.17 µM; IC50 (KU-19-19): 4.46 µM; IC50 (MCF-10A): 3.03 µM; IC50 in SK-MEL-3 relative to the Hs294T cell line [1]: 6.9 fold |
| NC(=S)N1N=Cc2ccccc2B1O [Compound 1] | 43.4 | 55.4 | 21.4 | 42.7 | – | – |
| NC(=S)NN=Cc1cccc(B(O)O)c1 [Compound 2] | 50.7 | 37.6 | 11.3 | 30.7 | – | – |
| NC(=S)N/N=C/c1ccc(B(O)O)cc1 [Compound 3] | 31.8 | 13.9 | 5.4 | 31.7 | – | antiproliferative effects in words [1]: minimal antiproliferative effects |
| CC1=NN(C(N)=S)B(O)c2ccccc21 [Compound 4] | – | – | – | – | 68.5 | IC50 (Hs-294T; Homo sapiens): 79.4 µM; IC50 (KU-19-19; Homo sapiens): 69 µM; IC50 (MCF-10A; Homo sapiens): 55 µM; IC50 ([1]; all four cell lines, 72 h, SRB, read-out: IC50 values, range over the tested cell lines): 55 to 79.4 µM |
| C/C(=N\NC(N)=S)c1cccc(B(O)O)c1 [Compound 5] | – | 35.9 | 26.8 | 37.1 | 56.1 | – |
| C/C(=N\NC(N)=S)c1ccc(B(O)O)cc1 [Compound 6] | 37.3 | 13.9 | 9.5 | 32.8 | – | IC50 against tyrosinase compared with the corresponding carboxylic acid (mushroom tyrosinase): four times lower; antiproliferative effects in words [1]: minimal antiproliferative effects |
| COc1cccc2c1C(=O)c1c(O)c3c(c(O)c1C2=O)C[C@@](O)(C(=O)CO)C[C@@H]3O[C@H]1C[C@H](N)[C@H](O)[C@H](C)O1 [Doxo, Doxorubicin hydrochloride, reference compound] | – | – | – | – | 0.016 | IC50 (Hs-294T; Homo sapiens): 0.0011 µM; IC50 (KU-19-19; Homo sapiens): 0.0016 µM; IC50 (MCF-10A; Homo sapiens): 0.00051 µM; IC50 in SK-MEL-3 relative to the Hs294T cell line [1]: 14.5 fold |
